Converted amounts (≈) assume the structure as drawn. Blank lines part the entries; values can stand above or below the compound they belong to.
Experiments:
[1] = system: A375; assay: In vitro combination assay (combination index, Chou-Talalay, MTS) on A375; format: cell-based, human; settings: +Vemurafenib; A375 cell line (Tables 3, 4)
[2] = system: A375RF21; assay: In vitro combination assay (combination index) on A375RF21; format: cell-based, human; settings: Treatment + Vemurafenib
[3] = system: A375RF21; assay: Cell cycle analysis (flow cytometry) in A375RF21 cells; format: cell-based, human; settings: resistant A375RF21 cell line
Protocol: (§1) Flow cytometry analysis was performed as described before (Wang Z, Chen J, Wang J, et al. “Novel tubulin polymerization inhibitors overcome multidrug resistance and reduce melanoma lung metastasis.” Pharm. Res. (2012) 29: 3040-3052). To determine cell cycle distributions in the G2 and M phases (FIG. 23), cells were harvested with trypsin, stained using antiphospho-histone H3-AlexaFluor® 488 antibody on ice for one hour in the dark, followed by stained using PI/RNase solution for 30 minutes at room temperature in the dark per the manufacturer's instructions (#FCCH025103, EMD Millipore Corporation, Ballerica, Mass.). Data were further processed and graphs were prepared using the Modfit 2.0 program (Verity Software House, Topsham, Me.).

[4] = system: A375; assay: Cell cycle analysis (flow cytometry) in parental A375 cells; format: cell-based, human
Protocol: as §1

[5] = system: A375RF21; assay: Annexin V/propidium iodide apoptosis detection in A375RF21 cells; format: cell-based, human; settings: 48 hours incubation
[6] = system: A375RF21 xenograft; assay: A375RF21 tumor xenograft in nude mice; format: in vivo
Protocol: Seven to eight week old male nude mice were purchased from Charles River Laboratories International, Inc. (Wilmington, Mass.). A375RF21 cells were suspended in ice-cold phenol red-free and FBS-free DMEM medium without FBS and mixed with high concentration Matrigel (BD Biosciences, San Joes, Calif.) at ratio of 1:1 right before use. 100 μL of this mixture containing 3×10^6 cells were injected subcutaneously (s.c.) to the left-side dorsal flank of each mouse. One week after the inoculation, the mice were randomized into four groups (n=7 for the initial low dose and n=5 for subsequent high dose drug combination) and the treatments started. […] Vehicle control group was i.p. injected with same volume (100 μL) of PEG300 at the same dosing frequency. At the end of the experiments, mice were euthanized and tumor tissue were isolated, weighted and then fixed in 10% buffered formalin phosphate solution.
Tumor volume and body weight of each mouse were evaluated three times a week.

[7] = system: HL60 tumors; assay: HL60 leukemia xenograft in nude mice; format: in vivo; settings: vincristine 1 mg/kg intraperitoneal injection once a week
[8] = Aqueous solubility (Multiscreen Solubility Filter Plate, LC-MS/MS); format: physicochemical; settings: aqueous
[9] = Pharmacokinetic study in ICR mice; settings: mouse; for MousePK_IV10mgk_Cl / MousePK_IV10mgk_V: IV 10 mg/kg
[10] = Pharmacokinetic study in Sprague-Dawley rats; settings: rat
[11] = in vitro; settings: human, liver microsomes, pH 7.4
[12] = vemurafenib 30 mg/kg, 12da 15 mg/kg, n=5

Structure (SMILES): COc1cccc2c1C(=O)c1c(O)c3c(c(O)c1C2=O)C[C@@](O)(C(=O)CO)C[C@@H]3O[C@H]1C[C@H](N)[C@H](O)[C@H](C)O1 [Doxorubicin]
- CI value EC75 [1]: 11.6

Structure (SMILES): NC1(c2ccc(-c3nc4ccn5c(=O)[nH]nc5c4cc3-c3ccccc3)cc2)CCC1 [MK2206]
- CI value EC75 [1]: 0.67

Structure (SMILES): CCN(CC)CCNC(=O)c1c(C)[nH]c(/C=C2\C(=O)Nc3ccc(F)cc32)c1C [Sunitinib]
- CI ED75 [2]: 0.91
- CI ED90 [2]: 0.93

Structure (SMILES): CC(=O)Nc1cccc(-n2c(=O)n(C3CC3)c(=O)c3c(Nc4ccc(I)cc4F)n(C)c(=O)c(C)c32)c1 [Trametinib]
- CI ED75 [2]: 0.90
- CI ED90 [2]: 0.90

Structure (SMILES): CCCS(=O)(=O)Nc1ccc(F)c(C(=O)c2c[nH]c3ncc(-c4ccc(Cl)cc4)cc23)c1F [Vemurafenib, reference compound]
- concentration of vemurafenib to produce G0/G1 cell cycle arrest [3]: ≥ 30 µM
- concentration of vemurafenib to produce G0/G1 cell cycle arrest [4]: less than 1 μM
- counted cell apoptosis or death (percentage sum of Q1, Q2 and Q4) [5]: 11.9±3.5%
- TGI (%) ([6]; 12da 10 mg/kg, vemurafenib 20 mg/kg, i.p. once per day 5 days per week, after 3 weeks of treatment, n=7): 22.65 ± 8.31%
- TGI (%) ([6]; 12da 10 mg/kg, vemurafenib 20 mg/kg, i.p. once per day 5 days per week, after 3 weeks of treatment, n=7, listed as vemurafenib): 22.65%
- Tumor weight (gram) ([6]; 12da 10 mg/kg, vemurafenib 20 mg/kg, after 3 weeks of treatment, n=7): 2.05 ± 0.14 gram
- TGI (%) [6, 12]: 28.10 ± 4.81%
- Tumor weight (gram) [6, 12]: 1.05 ± 0.21 gram
- TGI (%) ([6]; vemurafenib 30 mg/kg, 12da 15 mg/kg, n=5, listed as vemurafenib): 28.10%

Structure (SMILES): CC[C@]1(O)C[C@@H]2CN(CCc3c([nH]c4ccccc34)[C@@](C(=O)OC)(c3cc4c(cc3OC)N(C)[C@H]3[C@@](O)(C(=O)OC)[C@H](OC(C)=O)[C@]5(CC)C=CCN6CC[C@]43[C@@H]65)C2)C1 [Vinblastine]
- CI value EC75 [1]: 0.78

Structure (SMILES): CC[C@]1(O)C[C@H]2CN(CCc3c([nH]c4ccccc34)[C@@](C(=O)OC)(c3cc4c(cc3OC)N(C=O)[C@H]3[C@@](O)(C(=O)OC)[C@H](OC(C)=O)[C@]5(CC)C=CCN6CC[C@]43[C@@H]65)C2)C1 [Vincristine]
- tumor growth inhibition (TGI) [7]: 84%

- Solubility [8]: 12 µg/mL (≈ 32.2 µM)
- MousePK_IV10mgk_Cl [9]: 61 mL/min/kg
- MousePK_IV10mgk_V [9]: 4 L/kg
- MousePK_PO20mgk_AUC ([9]; PO 20 mg/kg): 201 µg·min/mL
- MousePK_PO20mgk_Cmax ([9]; PO 20 mg/kg): 2592 ng/mL
- RatPK_IV5mgk_Cl ([10]; IV 5 mg/kg): 16 mL/min/kg
- RatPK_IV5mgk_V ([10]; IV 5 mg/kg): 1.9 L/kg
- RatPK_PO10mgk_AUC ([10]; PO 10 mg/kg): 218 µg·min/mL
- RatPK_PO10mgk_Cmax ([10]; PO 10 mg/kg): 1109 ng/mL
Structure (SMILES): COc1cc(C(=O)c2c[nH]c(-c3ccc(Cl)cc3)n2)cc(OC)c1OC [drawing 51]

Structure (SMILES): COc1cc(C(=O)c2csc(-c3ccccc3)n2)cc(OC)c1OC [drawing 53]
- half-life at 0.5 μM [11]: 17 min
- MousePK_IV10mgk_Cl [9]: 130 mL/min/kg
- MousePK_IV10mgk_V [9]: 4.9 L/kg
- RatPK_IV5mgk_V ([10]; IV, 2.5mpk): 4.9 (2.5mpk) L/kg
- RatPK_PO10mgk_AUC ([10]; PO 10 mg/kg): 37 µg·min/mL
- RatPK_Bioavailability ([10]; oral): 3.3 % F

Reference: patent publication US10022356B2, “Compounds for treatment of cancer” (UNIVERSITY OF TENNESSEE RESEARCH FOUNDATION, priority 2013, dated 2018)
